# Laboratory results: patent US20010023252A1, “Novel compound” (SmithKline Beecham Plc, priority 1998, published 2001)
# Assay: Aqueous solubility of the salt (stated in words)
# Assay type: physicochemical
# Settings: water, compared with the hydrochloride salt
substance,measurement,setting,value
paroxetine methanesulfonate,aqueous solubility (in words),,highly water soluble
same,aqueous solubility (in words),listed as methanesulfonate salt of paroxetine,significantly more soluble than the hydrochloride salt
